Source: patent publication US12569502B2, “Use of bile acids and derivatives thereof in preparation of GPR39 agonist” (PEKING UNIVERSITY, priority 2019, dated 2026)
Read-outs that look alike come from different tables or passages of the source.

What was measured:
[1] = biological target: T1, murine-derived wild-type (WT) GPR39 (Mus musculus, UniProt Q5U431); assay: Calcium imaging on 293T cells transiently transfected with wild-type GPR39; format: cell-based; conditions: transiently transfected HEK293T cells
T1 construct: 3HA (N); P2A-mCherry (C); expressed in transfected cells; host or cells: HEK293T, transient (Lipofectamine 3000)
T1 sequence (Q5U431 1-456): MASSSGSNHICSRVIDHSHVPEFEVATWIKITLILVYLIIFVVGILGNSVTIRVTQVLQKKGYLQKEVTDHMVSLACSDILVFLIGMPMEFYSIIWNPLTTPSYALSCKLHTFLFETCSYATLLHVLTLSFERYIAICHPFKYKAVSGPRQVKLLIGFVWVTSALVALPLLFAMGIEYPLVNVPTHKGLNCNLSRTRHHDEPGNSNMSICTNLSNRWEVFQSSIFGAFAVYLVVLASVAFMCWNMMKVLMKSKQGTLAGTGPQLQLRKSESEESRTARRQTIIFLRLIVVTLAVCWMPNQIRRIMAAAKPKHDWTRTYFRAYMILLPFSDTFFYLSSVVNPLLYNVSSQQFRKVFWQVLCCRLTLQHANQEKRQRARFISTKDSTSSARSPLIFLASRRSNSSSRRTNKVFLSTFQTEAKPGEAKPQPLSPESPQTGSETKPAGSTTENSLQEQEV
Procedure: In the present application, the bile acid and/or derivative thereof is capable of activating the GPR39 independent of a zinc ion binding site. For example, in some embodiments, murine-derived wild-type (WT) GPR39 or zinc ion binding site mutant (H17A and H19A) GPR39 are transiently expressed in 293T cells by using lipofectamine3000 transfection kit. The activation effect of LCAS on the wild-type (WT) and mutants (H17A and H19A) is detected by calcium imaging.
HEK293T cells were seeded in a PDL-coated 96-well plate (coring Co.) at an appropriate density (about 3×10^4 cells/well) and cultured under conditions of 37° C. and 5% CO2. 24 h after seeding, when the cell density reached 60%-70%, Lipofectamine 3000 (Invitrogen) was used for transfection, in which the concentration of plasmid transfection was 50 ng per well. […] 2) Zinc ions […] on the activation of mutants H17A and H19A of GPR39 by LCAS.

[2] = biological target: T2, human GPR39 receptors on human GPR39-2 cell lines (Homo sapiens, UniProt O43194); assay: FLIPR calcium imaging on human GPR39-2 cell line stably expressing human GPR39; format: cell-based; conditions: for EC50: human GPR39-2 cells
T2 construct: P2A-mCherry (C)
T2 sequence (O43194 1-453): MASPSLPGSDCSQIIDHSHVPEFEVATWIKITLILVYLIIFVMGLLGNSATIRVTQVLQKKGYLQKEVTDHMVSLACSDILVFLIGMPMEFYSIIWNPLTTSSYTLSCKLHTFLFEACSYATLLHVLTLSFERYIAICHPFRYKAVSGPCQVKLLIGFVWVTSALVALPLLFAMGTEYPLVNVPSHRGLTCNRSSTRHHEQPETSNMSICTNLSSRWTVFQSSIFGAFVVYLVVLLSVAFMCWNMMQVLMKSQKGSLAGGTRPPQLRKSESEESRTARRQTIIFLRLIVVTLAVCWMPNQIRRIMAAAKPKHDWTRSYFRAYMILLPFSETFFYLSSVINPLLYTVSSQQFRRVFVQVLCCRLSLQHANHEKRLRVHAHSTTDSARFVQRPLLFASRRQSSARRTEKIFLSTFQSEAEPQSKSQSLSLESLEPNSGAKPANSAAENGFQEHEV
Source text: The human GPR39 cDNA vector was purchased from WZ Biosciences Inc., Shandong. It was cloned onto a lentiviral vector PLVXK-hGPR39-P2A-mCherry (FIG. 10) through PCR amplification using primers hGPR39-F (which sequence was shown as set forth in SEQshown as set forth in SEQ ID NO: 15) and hGPR39-R (which sequence was shown as set forth in SEQ shown as set forth in SEQ ID NO: 16), in which the sequence of the target gene human GPR39 cDNA was shown as set forth in SEQ shown as set forth in SEQ ID NO: 14. A cell line human GPR39-2 stably expressing human GPR39 gene was constructed according to the method of Example 1.

SMILES | EC50 ([1]; agonist alone) [µM] | EC50 ([2]; no added zinc ions, read-out: EC50 Only agonist) [µM] | EC50 ([1]; + 4 μM zinc ions) [µM] | EC50 ([2]; EC50 Agonist + 4 μM zinc ions, 4 μM zinc ions) [µM] | intracellular calcium signal response of human GPR39-2 ([2]; FIG. 9)
[Zn+2] [Zinc ions, reference compound] | 12 ± 5.3 | 12 ± 2.8 | – | – | –
C[C@H](CCC(=O)O)[C@H]1CC[C@H]2[C@@H]3CC[C@@H]4C[C@H](OS(=O)(=O)O)CC[C@]4(C)[C@H]3CC[C@]12C [LCAS] | 33.1 ± 5.1 | – | 5.2 ± 0.7 | 0.97 ± 0.3 | capable of inducing intracellular calcium signal response
